Source: patent US20240108580A1, “DECOQUINATE LIPOSOME, PREPARATION METHOD THEREFOR AND USE THEREOF” (CAS LAMVAC (GUANGZHOU) BIOMEDICAL TECHNOLOGY CO.,LTD., priority 2019, published 2024)
Like-named read-outs stand apart in the source and are kept apart here.

Legend:
P. falciparum 3D7 = assay: In-vitro inhibition potency against Plasmodium falciparum, 72 hours, nucleic acid dye; format: cell-based
Protocol: (§1) The volume was filled up to 1 L with ultrapure water, the pH adjusted to 7.2, subjected to sterilized filtration by using a 0.22 μm filtration membrane, and stored at 4° C. to obtain a complete culture medium; the incomplete medium was composed of 10.43 g of 1640 dry powder (GIBCO, 31800022), 5.96 g of Hepes, 2 g of sodium bicarbonate, 0.292 g of L-glutamine, 3.96 g of glucose, […] of hypoxanthine and 2.5 mg of gentamicin, prepared by the same method as for the complete culture medium. • (2) Drugs and formulations: pure decoquinate was dissolved in DMSO as a stock solution, chloroquine was dissolved in PBS, and artemisinin was dissolved in DMSO and then diluted with PBS. […] Before the experiment, all the above dissolved drug solutions were then diluted to series of 10 gradient concentrations with the incomplete medium. • (3) Culture and assay method: Plasmodium falciparum was cultured in the complete culture medium, and human red blood cells (RBC) were preserved in the incomplete culture medium. […] The culture was incubated at 37° C. in 5% CO2 for 72 hours, then nucleic acid dye was added, and the […] measured in a microplate reader. The half-maximal inhibitory concentration (IC50) of drugs was calculated with Graph Pad software, that is, the concentration when the inhibition rate of antimalarial drugs to P. falciparum reached 50% was calculated.

P. falciparum Dd2 = assay: as above; format: cell-based
Protocol: as §1

[1] = cited from earlier work
[2] = 3D7, chloroquine-sensitive strain, liposome values are decoquinate concentrations, read-out: IC50 P. falciparum 3d7 Mean ± S.D.
[3] = DD2, multidrug-resistant (including chloroquine) strain, liposome values are decoquinate concentrations, read-out: IC50 P. falciparum Dd2 Mean ± S.D.

Compound | IC50 (P. falciparum 3D7; [2]) | IC50 (P. falciparum Dd2; [3]) | IC50 (P. falciparum 3D7; 3D7, read-out: IC50 P. falciparum 3d7 Mean ± S.D.) | IC50 (P. falciparum Dd2; DD2, read-out: IC50 P. falciparum Dd2 Mean ± S.D.) | Solubility in ethanol ([1]; ethanol) | Solubility in water ([1]; water)
C[C@@H]1CC[C@H]2[C@@H](C)C(=O)O[C@@H]3O[C@@]4(C)CC[C@@H]1[C@]32OO4 [Artemisinin, artemisinin] | 16.4 ± 5.8 nM | 18.5 ± 0.5 nM |  |  |  | 
CCN(CC)CCCC(C)Nc1ccnc2cc(Cl)ccc12 (centres unmarked) [Chloroquine, chloroquine] |  |  | 23.75 ± 0.06 nM | 185 ± 16.2 nM |  | 
CCCCCCCCCCOc1cc2c(O)c(C(=O)OCC)cnc2cc1OCC [Pure DQ, ethyl 6-decyloxy-7-ethoxy-4-hydroxyquinoline-3-carboxylate] | 1.63 ± 0.13 nM | 1.57 ± 0.49 nM |  |  | slightly soluble | practically insoluble
